Test results as given in patent US20090291977A1, “Chromane Derivatives Useful As Acid Pump Antagonists” (priority 2004, published 2009).

How the values were obtained:
[1] = target: T1, Porcine gastric H+/K+-ATPase (Sus scrofa, UniProt P19156); assay: Ion-leaky porcine gastric H+/K+-ATPase inhibition; type: biochemical; conditions: ion-leaky vesicles, 5 mM KCl, pH 6.4, 37° C., 30 minutes
T1 construct: The gastric vesicles were collected from interface on 0.25 M sucrose layer containing 7% Ficoll; from tissue; host or cells: mucous membrane of fresh porcine stomachs (gastric vesicles)
T1 sequence (P19156 2-1034 limits assumed): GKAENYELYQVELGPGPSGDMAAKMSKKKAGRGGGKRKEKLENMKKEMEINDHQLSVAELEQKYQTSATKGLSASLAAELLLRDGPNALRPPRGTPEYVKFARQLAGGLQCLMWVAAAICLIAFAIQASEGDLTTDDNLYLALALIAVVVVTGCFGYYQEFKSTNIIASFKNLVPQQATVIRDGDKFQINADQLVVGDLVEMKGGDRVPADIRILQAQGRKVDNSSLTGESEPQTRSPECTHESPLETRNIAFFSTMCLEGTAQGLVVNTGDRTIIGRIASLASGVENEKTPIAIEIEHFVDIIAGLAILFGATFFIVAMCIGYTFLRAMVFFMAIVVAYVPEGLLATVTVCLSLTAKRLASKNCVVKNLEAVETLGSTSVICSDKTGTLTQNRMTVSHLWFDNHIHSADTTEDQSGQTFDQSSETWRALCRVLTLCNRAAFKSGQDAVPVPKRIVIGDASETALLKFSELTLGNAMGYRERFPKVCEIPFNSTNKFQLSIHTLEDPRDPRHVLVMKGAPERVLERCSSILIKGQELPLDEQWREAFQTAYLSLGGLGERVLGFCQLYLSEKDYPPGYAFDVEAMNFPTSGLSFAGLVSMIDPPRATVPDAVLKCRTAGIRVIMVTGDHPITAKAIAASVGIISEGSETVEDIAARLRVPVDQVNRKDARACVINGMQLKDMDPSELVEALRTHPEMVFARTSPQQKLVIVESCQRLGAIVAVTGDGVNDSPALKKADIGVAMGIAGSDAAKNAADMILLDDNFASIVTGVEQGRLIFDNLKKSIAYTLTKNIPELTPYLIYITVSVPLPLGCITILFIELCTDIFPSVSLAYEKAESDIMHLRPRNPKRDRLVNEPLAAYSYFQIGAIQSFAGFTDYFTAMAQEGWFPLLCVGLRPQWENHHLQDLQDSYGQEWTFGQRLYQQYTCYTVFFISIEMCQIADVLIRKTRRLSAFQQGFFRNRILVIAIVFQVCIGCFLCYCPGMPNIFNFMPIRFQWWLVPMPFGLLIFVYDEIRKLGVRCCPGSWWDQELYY
T1 sequence (P18434 whole entry partner): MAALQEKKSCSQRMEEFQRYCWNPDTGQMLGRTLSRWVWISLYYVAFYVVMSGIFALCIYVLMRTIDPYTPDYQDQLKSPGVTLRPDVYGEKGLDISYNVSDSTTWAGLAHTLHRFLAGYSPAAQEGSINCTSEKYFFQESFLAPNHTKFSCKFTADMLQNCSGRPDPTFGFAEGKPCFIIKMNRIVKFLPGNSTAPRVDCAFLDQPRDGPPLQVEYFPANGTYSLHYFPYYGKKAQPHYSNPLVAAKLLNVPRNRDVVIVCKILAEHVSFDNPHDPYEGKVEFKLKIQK
Description: The porcine gastric vesicles for Porcine gastric H^+/K^+-ATPase inhibition assays were prepared from mucous membrane in fresh porcine stomachs by homogenization with a tight-fitted polytetrafluoroethylene (Teflone®) homogenizer in 0.25 M sucrose at 4° C. The crude pellet was removed with centrifugation at 20,000 g for 30 min. Then supernatant was centrifuged at 100,000 g for 30 min. The resulting pellet was re-suspended in 0.25 M sucrose, and then subjected to density gradient centrifugation at 132,000 g for 90 min. The gastric vesicles were collected from interface on 0.25 M sucrose layer containing 7% Ficoll™ PM400(Amersham Biosciences). This procedure was performed in a cold room.
Ion-leaky porcine gastric H^+/K^+-ATPase-inhibition was measured according to the modified method described in Biochemical Pharmacology, 1988, 37, 2231-2236.
The isolated vesicles were lyophilized, and then kept in deep-freezer until use. For enzyme assay, lyophilized vesicles were reconstituted with 3 mM MgSO4 containing 40 mM Bis-tris (pH 6.4 at 37° C.).
Enzyme reaction was performed incubating 5 mM KCl, 3 mM Na2ATP, 3 mM MgSO4 and 1.0 μg of reconstituted vesicles for 30 minutes at 37° C. in a final 60 μl of reaction mixture (40 mM Bis-tris, pH 6.4) with or without the test compound. Enzyme reaction was stopped by adding 10% sodium dodecyl sulphate (SDS). Released inorganic phosphate from ATP was detected by incubation with mixture of 1 part of 35 mM ammonium molybdate tetrahydrate in 15 mM Zinc acetate hydrate and 4 parts of 10% ascorbic acid (pH 5.0), resulting in phosphomolybdate, which has optical density at 750 nm.

[2] = system: acid secretion in the gastric lumen-perfused rat; assay: Inhibition of acid secretion in the gastric lumen-perfused rat; type: in vivo; conditions: Sprague-Dawley rat, pentagastrin-stimulated acid secretion, intravenous bolus or intraduodenal administration
Description: Acid secretion in the gastric lumen-perfused rat was measured according to Watanabe et al. [Watanabe K et al., J. Physiol. (Paris) 2000; 94: 111-116].
Male Sprague-Dawley rats, 8 weeks old, deprived of food for 18 hours before the experiment with free access to water, were anesthetized with urethane (1.4 g/kg, i.p.) and tracheotomized. After a middle abdominal incision, a dual polyethylene cannula was inserted into the forestomach and the stomach was perfused with saline (37° C., pH 5.0) at a rate of 1 ml/min. The acid output in the perfusate was determined at 5 minutes interval by titration with 0.02 M NaOH to pH 5.0. After the determination of basal acid secretion for 30 min, the acid secretion was stimulated by a continuous intravenous infusion of pentagastrin (16 μg/kg/h). The test compounds were administered by an intravenous bolus injection or intraduodenal administration after the stimulated acid secretion reached a plateau phase. The acid secretion was monitored after the administration.

In the case of `Cc1cccc2c1C(Nc1cc(C(=O)N(C)CCO)cn3c(C)c(C)nc13)CCO2` (single isomer, unassigned; (+)) [Example 5-3, (+)-N-(2-Hydroxyethyl)-N,2,3-trimethyl-8-[(5-methyl-3,4-dihydro-2H-chromen-4-yl)amino]imidazo[1,2-a]pyridine-6-carboxamide], the IC50 [1] is reported as 93 nM and the “inhibitory activity (inhibition of acid secretion)” value [2] is reported as “good inhibitory activity”.
